This passage reports AC50 results from ChEMBL document CHEMBL5291721, “A preclinical secondary pharmacology resource illuminates target-adverse drug reaction associations of marketed drugs” (Nat Commun, 2023).

In general, AC50 refers to the midpoint of the concentration-response curve, whichever way the signal moves. A low value points to activity at low concentration.

The target of assay [1] is T1, Muscarinic acetylcholine receptor M2 (Homo sapiens, UniProt P08172).
T1 sequence (P08172 whole entry): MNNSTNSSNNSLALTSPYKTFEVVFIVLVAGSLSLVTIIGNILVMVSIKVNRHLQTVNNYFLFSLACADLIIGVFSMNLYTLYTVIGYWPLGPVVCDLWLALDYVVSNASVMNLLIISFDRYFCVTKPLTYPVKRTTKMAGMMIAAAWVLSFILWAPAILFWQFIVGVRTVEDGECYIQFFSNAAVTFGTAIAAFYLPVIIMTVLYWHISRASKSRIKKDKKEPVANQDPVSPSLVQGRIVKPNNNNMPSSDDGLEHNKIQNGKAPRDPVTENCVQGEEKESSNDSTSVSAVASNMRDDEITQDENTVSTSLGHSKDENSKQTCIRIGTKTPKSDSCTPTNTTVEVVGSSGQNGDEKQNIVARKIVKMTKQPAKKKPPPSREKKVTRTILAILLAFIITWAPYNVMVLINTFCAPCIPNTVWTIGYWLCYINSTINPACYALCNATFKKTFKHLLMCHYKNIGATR

Assay [2] deals with T2, Alpha-1A adrenergic receptor (Homo sapiens, UniProt P35348).
T2 sequence (P35348 whole entry): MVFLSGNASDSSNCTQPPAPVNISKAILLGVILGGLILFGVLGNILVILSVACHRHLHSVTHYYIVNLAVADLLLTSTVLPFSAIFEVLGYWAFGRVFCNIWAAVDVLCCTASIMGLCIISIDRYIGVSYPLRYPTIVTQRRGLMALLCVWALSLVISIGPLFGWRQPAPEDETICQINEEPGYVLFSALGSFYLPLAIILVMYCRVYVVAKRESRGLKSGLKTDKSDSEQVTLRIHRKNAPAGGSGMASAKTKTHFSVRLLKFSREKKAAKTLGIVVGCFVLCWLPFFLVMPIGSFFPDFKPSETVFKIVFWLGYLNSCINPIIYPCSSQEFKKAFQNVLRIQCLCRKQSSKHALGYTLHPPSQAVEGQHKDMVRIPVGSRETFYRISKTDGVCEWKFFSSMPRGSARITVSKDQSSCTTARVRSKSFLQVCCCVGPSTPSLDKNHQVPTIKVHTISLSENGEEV

Assay [3] addresses 5-hydroxytryptamine receptor 7 (Homo sapiens, UniProt P34969).
The target in assay [4] is T3, Corticotropin-releasing factor receptor 2 (Homo sapiens, UniProt Q13324).
T3 sequence (Q13324 whole entry): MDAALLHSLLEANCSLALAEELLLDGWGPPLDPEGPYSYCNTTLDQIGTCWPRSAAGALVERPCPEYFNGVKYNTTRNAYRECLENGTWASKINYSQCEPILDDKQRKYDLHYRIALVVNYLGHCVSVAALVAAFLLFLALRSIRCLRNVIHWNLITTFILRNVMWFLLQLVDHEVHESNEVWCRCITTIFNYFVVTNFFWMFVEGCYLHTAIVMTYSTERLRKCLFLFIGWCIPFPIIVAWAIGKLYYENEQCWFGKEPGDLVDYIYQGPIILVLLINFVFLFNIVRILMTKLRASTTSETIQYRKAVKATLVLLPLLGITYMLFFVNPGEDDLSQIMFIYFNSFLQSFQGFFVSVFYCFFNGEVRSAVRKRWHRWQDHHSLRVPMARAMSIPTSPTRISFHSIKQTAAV

In a further assay the target is Histamine H3 receptor (Homo sapiens, UniProt Q9Y5N1).
Histamine H3 receptor, sequence (Q9Y5N1 whole entry): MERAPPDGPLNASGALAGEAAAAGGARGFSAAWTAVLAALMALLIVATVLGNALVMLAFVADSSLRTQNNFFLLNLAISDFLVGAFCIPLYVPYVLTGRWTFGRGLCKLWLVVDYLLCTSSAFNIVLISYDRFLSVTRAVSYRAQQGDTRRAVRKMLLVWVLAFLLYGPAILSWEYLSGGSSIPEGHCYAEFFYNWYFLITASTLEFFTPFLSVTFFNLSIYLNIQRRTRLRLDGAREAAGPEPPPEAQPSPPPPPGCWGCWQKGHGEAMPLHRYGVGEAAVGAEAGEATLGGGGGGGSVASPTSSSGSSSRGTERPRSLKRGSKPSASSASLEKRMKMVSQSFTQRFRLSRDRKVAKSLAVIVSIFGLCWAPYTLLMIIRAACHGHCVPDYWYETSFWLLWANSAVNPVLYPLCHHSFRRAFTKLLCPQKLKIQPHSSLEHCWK
For assay [5], the target named is T2, Alpha-1A adrenergic receptor. In kind it is functional, cell-based.
Assay [6] addresses Sodium-dependent noradrenaline transporter (Homo sapiens, UniProt P23975).
The target of the next assay is Prothrombin (Homo sapiens, UniProt P00734). It is filed as functional.
For a further assay, the target named is T4, Progesterone receptor (Homo sapiens, UniProt P06401).
T4 sequence (P06401 whole entry): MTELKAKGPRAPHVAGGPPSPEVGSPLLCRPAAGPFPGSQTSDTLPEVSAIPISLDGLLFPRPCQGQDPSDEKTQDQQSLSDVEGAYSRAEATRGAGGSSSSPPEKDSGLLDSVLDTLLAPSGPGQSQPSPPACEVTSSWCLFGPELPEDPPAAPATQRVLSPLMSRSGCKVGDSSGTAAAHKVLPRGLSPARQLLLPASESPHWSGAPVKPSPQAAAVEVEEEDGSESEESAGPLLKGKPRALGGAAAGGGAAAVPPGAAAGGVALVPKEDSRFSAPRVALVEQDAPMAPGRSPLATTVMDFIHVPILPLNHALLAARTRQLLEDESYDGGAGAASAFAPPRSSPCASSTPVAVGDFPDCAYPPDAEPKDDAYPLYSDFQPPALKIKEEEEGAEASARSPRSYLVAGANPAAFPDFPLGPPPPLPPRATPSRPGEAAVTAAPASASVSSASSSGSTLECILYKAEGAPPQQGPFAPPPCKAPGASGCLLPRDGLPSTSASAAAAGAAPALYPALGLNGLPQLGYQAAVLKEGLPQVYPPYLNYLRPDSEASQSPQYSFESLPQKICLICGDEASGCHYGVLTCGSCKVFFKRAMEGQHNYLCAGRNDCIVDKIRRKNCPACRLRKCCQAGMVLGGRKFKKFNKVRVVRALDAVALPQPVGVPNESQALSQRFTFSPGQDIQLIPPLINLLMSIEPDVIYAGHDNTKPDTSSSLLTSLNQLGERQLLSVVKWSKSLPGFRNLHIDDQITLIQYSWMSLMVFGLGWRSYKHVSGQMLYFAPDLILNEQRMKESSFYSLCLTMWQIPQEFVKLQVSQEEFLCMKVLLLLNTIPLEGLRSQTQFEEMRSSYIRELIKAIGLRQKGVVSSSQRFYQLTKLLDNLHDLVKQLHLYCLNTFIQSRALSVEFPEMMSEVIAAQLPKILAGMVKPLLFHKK

The next assay deals with Histamine H1 receptor (Homo sapiens, UniProt P35367). It is filed as functional, cell-based.
Histamine H1 receptor, sequence (P35367 whole entry): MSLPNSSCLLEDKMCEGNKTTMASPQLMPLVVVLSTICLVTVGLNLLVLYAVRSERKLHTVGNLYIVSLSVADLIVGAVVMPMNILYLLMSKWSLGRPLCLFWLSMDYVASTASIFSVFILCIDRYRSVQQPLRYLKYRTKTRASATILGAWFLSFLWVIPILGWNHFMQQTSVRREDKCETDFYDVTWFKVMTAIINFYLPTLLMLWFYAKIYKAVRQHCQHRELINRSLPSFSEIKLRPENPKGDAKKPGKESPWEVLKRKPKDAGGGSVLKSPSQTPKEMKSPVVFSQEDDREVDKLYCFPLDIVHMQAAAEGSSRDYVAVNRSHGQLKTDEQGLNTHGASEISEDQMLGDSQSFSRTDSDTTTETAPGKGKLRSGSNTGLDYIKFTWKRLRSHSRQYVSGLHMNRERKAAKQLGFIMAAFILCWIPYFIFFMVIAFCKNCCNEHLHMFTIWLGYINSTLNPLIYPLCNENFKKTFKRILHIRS
Assay [7] deals with Beta-1 adrenergic receptor (Homo sapiens, UniProt P08588). It is filed as functional, cell-based.
Beta-1 adrenergic receptor, sequence (P08588 whole entry): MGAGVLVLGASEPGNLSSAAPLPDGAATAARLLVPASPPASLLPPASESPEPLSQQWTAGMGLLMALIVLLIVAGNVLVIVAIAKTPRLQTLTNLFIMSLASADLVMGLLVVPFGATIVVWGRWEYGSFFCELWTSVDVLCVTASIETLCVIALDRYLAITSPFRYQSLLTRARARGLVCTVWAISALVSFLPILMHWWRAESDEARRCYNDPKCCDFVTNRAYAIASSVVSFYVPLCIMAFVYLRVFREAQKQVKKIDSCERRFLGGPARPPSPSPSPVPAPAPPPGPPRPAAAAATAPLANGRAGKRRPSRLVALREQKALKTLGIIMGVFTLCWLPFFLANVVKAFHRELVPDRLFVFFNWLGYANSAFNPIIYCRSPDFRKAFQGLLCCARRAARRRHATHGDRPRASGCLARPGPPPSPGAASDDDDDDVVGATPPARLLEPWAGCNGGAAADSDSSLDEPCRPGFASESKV
Note: assay procedure not described here.

Sodium-dependent noradrenaline transporter, sequence (P23975 whole entry): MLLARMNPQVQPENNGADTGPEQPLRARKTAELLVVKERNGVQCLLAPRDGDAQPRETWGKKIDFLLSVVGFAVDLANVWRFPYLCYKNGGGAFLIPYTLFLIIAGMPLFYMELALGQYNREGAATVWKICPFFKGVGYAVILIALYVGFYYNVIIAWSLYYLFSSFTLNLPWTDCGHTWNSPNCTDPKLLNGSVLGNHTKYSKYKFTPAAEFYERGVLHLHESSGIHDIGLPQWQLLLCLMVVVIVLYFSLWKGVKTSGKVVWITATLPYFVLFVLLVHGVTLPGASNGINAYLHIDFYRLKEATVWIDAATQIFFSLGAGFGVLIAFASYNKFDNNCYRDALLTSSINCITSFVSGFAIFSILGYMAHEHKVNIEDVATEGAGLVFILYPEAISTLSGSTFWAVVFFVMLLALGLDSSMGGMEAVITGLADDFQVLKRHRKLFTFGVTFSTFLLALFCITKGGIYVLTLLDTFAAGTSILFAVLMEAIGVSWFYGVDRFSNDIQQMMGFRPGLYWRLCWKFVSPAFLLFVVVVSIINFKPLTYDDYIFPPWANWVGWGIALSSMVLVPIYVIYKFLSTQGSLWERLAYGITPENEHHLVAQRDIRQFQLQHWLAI
5-hydroxytryptamine receptor 7, sequence (P34969 whole entry): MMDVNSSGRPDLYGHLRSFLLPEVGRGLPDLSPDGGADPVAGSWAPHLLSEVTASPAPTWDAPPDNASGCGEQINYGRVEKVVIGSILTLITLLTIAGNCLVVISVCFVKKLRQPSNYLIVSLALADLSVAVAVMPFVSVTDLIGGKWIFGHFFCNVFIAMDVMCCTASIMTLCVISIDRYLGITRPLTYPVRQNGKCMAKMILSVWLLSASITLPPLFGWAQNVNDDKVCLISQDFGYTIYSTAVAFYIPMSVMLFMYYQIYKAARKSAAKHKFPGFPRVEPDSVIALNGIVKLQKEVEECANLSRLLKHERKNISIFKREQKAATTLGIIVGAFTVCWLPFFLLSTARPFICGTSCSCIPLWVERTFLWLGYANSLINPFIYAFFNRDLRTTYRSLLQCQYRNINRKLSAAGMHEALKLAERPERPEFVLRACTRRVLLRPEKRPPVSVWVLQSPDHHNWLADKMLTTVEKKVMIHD

`Clc1ccccc1C(c1ccccc1)(c1ccccc1)n1ccnc1` [CLOTRIMAZOLE] yielded an AC50 in assay [1] greater than 10 µM.

With `Cc1c(OCC(F)(F)F)ccnc1C[S+]([O-])c1nc2ccccc2[nH]1` (stereo not given) [LANSOPRAZOLE], the AC50 in assay [2] was greater than 10 µM; in assay [3], greater than 10 µM; in assay [4], greater than 30 µM.

Take `CO[C@]12C[C@@H](COC(=O)c3cncc(Br)c3)CN(C)[C@@H]1Cc1cn(C)c3cccc2c13` [NICERGOLINE]: the AC50 on Histamine H3 receptor was 7.91 µM; in [5], 21.8 µM; in assay [6], 11.1 µM; on Prothrombin, greater than 30 µM; on Progesterone receptor, greater than 30 µM.

For the compound `NC(=O)CN1CC(O)CC1=O` (stereo not given) [OXIRACETAM], the AC50 on Histamine H1 receptor was greater than 30 µM.

In assay [7], `C[C@@H]1O[C@@H](O[C@@H]2C=C3CC[C@@H]4[C@H](CC[C@]5(C)[C@@H](c6ccc(=O)oc6)CC[C@]45O)[C@@]3(C)CC2)[C@H](O)[C@H](O)[C@H]1O` [PROSCILLARIDIN] gave an AC50 greater than 30 µM.

In turn, `CC/C(=C(\c1ccccc1)c1ccc(OCCN(C)C)cc1)c1ccccc1` [TAMOXIFEN] gave a concentration at half-maximal activity (AC50) in assay [1] greater than 10 µM.

Compound `C#C[C@]1(O)CC[C@H]2[C@@H]3[C@H](C)CC4=C(CCC(=O)C4)[C@H]3CC[C@@]21C` [TIBOLONE] yielded an AC50 in assay [7] greater than 30 µM.

Consider `COc1cccc(C2(O)CCCCC2CN(C)C)c1` (stereo not given) [TRAMADOL], for which the figures for the AC50 in assay [2] and in [4] were greater than 10 µM and greater than 30 µM, respectively.

As to THIMEROSAL, the concentration at half-maximal activity (AC50) (at Histamine H3 receptor; in [5]; in assay [6]; on Prothrombin; on Progesterone receptor) was greater than 30 µM in each case.
